Molecular target: T1, TgACBP2 (Toxoplasma gondii, UniProt A0A7J6JZP9)
T1 construct: gene TGRH88_042420; recombinant TgACBP2 with C-terminal GST tag (tag kept), expressed in E. coli and purified; native HA-tagged protein ~36 kDa
T1 sequence (A0A7J6JZP9 1-311): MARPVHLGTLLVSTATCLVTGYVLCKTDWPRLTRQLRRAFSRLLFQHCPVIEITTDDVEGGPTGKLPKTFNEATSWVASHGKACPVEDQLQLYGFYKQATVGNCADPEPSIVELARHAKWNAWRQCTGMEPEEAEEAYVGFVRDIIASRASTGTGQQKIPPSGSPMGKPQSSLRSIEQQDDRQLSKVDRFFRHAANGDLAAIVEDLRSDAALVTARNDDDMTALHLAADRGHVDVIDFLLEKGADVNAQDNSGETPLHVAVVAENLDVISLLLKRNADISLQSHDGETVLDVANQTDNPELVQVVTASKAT
Experiment: fluorescence increase of NBD ligand upon binding, microplate reader
Settings: labelled compound; 0.1 μM TgACBP2-GST, 0-0.25 μM ligand, PBS, room temperature, 5 min; ex 460 nm, em 540 nm; read-out: K (binding constant)

NBD-C16:0-CoA gave a Kd of 136 nM.

From publication PMC6199492, “Comprehensive Characterization of Toxoplasma Acyl Coenzyme A-Binding Protein TgACBP2 and Its Critical Role in Parasite Cardiolipin Metabolism” (mBio, 2018)
